Assay results taken from patent US7402417B2, “P450 oxygenases and methods of use” (Washington State University Research Foundation, priority 2003, dated 2008).
Read-outs that look alike come from different tables or passages of the source.

Experiments:
5α-hydroxylase = conditions: 100 μM inhibitor; cited from earlier work
[1] = target: T1, recombinant taxoid 5α-hydroxylase (clone S1) (Taxus cuspidata, UniProt Q6WG30); test: Substrate binding spectra with Sf9 microsomes enriched in recombinant 5α-hydroxylase; conditions: no NADPH
T1 construct: the S1 ORF was amplified using Pfu DNA polymerase and gene-specific primers containing a BamHI site immediately upstream of the start codon; made in house; host or cells: Spodoptera frugiperda Sf9 cells (baculovirus, pFastBac1); microsomal membranes
T1 sequence (Q6WG30 with tags, fused parts or gaps): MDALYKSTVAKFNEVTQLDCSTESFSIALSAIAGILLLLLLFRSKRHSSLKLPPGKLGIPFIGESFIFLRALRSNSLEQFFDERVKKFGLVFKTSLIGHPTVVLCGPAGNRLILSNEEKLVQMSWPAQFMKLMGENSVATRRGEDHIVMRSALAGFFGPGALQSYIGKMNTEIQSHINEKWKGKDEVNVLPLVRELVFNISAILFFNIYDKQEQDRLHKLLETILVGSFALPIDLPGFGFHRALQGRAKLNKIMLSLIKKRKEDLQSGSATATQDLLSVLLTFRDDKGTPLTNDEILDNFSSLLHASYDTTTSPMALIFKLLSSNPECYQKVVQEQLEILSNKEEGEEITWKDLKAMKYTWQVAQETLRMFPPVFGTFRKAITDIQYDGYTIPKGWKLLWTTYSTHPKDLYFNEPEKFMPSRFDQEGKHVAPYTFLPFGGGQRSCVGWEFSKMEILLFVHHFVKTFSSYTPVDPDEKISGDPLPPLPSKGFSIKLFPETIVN
Protocol: Microsomes from S. frugiperda cells enriched with 200 pmol recombinant taxoid 5α-hydroxylase (clone S1) were employed. Taxa-4(20),11(12)-diene was assayed over a concentration range from 0.1 to 10 μM, and a binding constant (Ks) of 4±1 μM was determined (upper graph). Taxa-4(5),11(12)-diene was assayed over a concentration range of 0.1 to 20 μM and a binding constant (Ks) of 6.5±1.5 μM was determined (lower graph).
Binding spectra for both taxadiene isomers (in the absence of NADPH) were then recorded using the Sf9 cell microsomes enriched in the recombinant 5α-hydroxylase. Substrate binding spectra were obtained as described by Schenkin and Jausson, Methods Mol. Biol. (Cytochrome P450 Protocols), 107:25-33, 1998) using a Perkin-Elmer Lambda 18 spectrophotometer (Haudenschild et al., Arch. Biochem. Biophys., 379:127-136, 2000). Substrate binding spectra were recorded with up to 200 pmol of recombinant microsomal cytochrome P450 enzyme (as determined by CO-difference spectral analysis) per cuvette in 100 mM sodium phosphate buffer at pH 7.5. In preparation for binding studies, the taxadiene isomers were each dissolved in DMSO and 1 μl additions to the sample were made to a final concentration of 1.5% (v/v). For data analysis, Spectrum for Windows (Perkin-Elmer Corp., Wellesey, Mass.) and Sigmaplot 7.0 (SPSS Inc., Chicago, Ill.) were employed and experiments were run in triplicate.

[2] = target: T1, recombinant taxoid 5α-hydroxylase (clone S1); test: Kinetic evaluation with Sf9 microsomes enriched in recombinant 5α-hydroxylase (radio-HPLC, Michaelis-Menten); type: biochemical; conditions: recombinant enzyme, 200 μM NADPH plus regenerating system
Protocol: Kinetic constants for both isomers were next evaluated (at a saturating 200 μM concentration of NADPH plus regenerating system; Shimada and Yamazai, Meth. Mol. Biol., 107:85-93, 1998). The isolated microsomes were resuspended in 50 mM Hepes, pH 7.5, containing 1 mM DTT and 5% (v/v) glycerol, and the 1 ml reactions (˜600 μg protein, 50 μM substrate dissolved in DMSO, and the requisite cofactors (e.g., NADPH plus regenerating system) were run as described previously, with the identical protocols for product analysis (Jennewein et al., Proc. Natl. Acad. Sci. USA, 98:13595-13600, 2001). DMSO was without influence on the reaction. For kinetic evaluation, following the establishment of linear reaction conditions in protein concentration and time, the response to substrate concentration was plotted by the Michaelis-Menten method (Sigmaplot 7.0) using the calibrated radio-HPLC protocol for product determination Data from three independent experiments were pooled and the line of best fit taken (R^2>0.99).

[3] = test system: microsomal 5α-hydroxylase activity; test: Kinetic evaluation with Taxus suspension cell microsomes (radio-HPLC, total product); type: biochemical, Taxus media hicksii; conditions: T. media suspension cell microsomes, [20-3H] substrate
Protocol: Preparation of Taxus suspension cell microsomes and assays for microsomal 5α-hydroxylase activity were carried out as previously described (Hefner et al., Chem. Biol., 3:479489, 1996; Lovy Wheeler et al., Arch. Biochem. Biophys., 390:265-278, 2001) with the following modifications: Unelicited Taxus media hicksii cells were harvested 14 days after transfer, separated from the media, frozen in liquid N2 and ground to a fine powder with a mortar and pestle, with extraction and microsome preparation as described by Lovy Wheeler et al. (Arch. Biochem. Biophys., 390:265-278, 2001). The previously described radio-HPLC-based assay (Lovy Wheeler et al., Arch. Biochem. Biophys., 390:265-278, 2001) was employed to separate the substrate from taxadien-5α-ol and polyols derived therefrom which were summed as “total product” for the purpose of rate determination.
Following the confirmation of linear reaction conditions in protein concentration and time, kinetic constants were determined for both [20-3H]taxa-4(5),11(12)-diene and [20-3H]taxa-4(20),11(12)-diene with the optimized assay (Hefner et al., Chem. Biol., 3:479-489, 1996). The radio-HPLC-based assay previously described by Lovy Wheeler et al. (Arch. Biochem. Biophys., 390:265-278, 2001) was employed to permit summing of taxadien-polyols derived subsequently from the initially formed taxadienol product generated by this microsomal system that contains all of the downstream cytochrome P450 taxoid oxygenases of the pathway (Lovy Wheeler et al., Arch. Biochem. Biophys., 390:265-278, 2001).
Thus, one or more constituents of the crude Taxus microsomal protein preparation catalyze the reaction of taxa-4(5),11(12)-diene and taxa-4(20),11(12)-diene to the corresponding taxadienols.

[4] = target: T2, clone S1 taxoid 5α-hydroxylase in Saccharomyces cerevisiae WAT11 (Taxus cuspidata, UniProt Q6WG30); test: In vivo feeding of labeled substrate to yeast expressing clone S1, radio-HPLC and GC-MS of products; type: cell-based; conditions: 30 μM substrate
T2 construct: expressed in transfected cells; host or cells: Saccharomyces cerevisiae strain WAT11
T2 sequence (Q6WG30 with tags, fused parts or gaps limits assumed): as the sequence (Q6WG30 with tags, fused parts or gaps) above
Description: This in vivo feeding protocol eliminated the uncertainties associated with microsome isolation and in vitro assay, including the instability of P450 oxygenases in yeast membranes (Schoendorf et al., Proc. Nail. Acad. Sci. USA, 98:1501-1506, 2001).
Transformed and induced yeast cells were harvested by centrifugation as described in Example 2. As a negative control for the feeding experiments, the yeast host was transformed with the pYES2.1/V5-HIS-TOPO™ vector containing a β-glucuronidase insert instead of the cytochrome P450 S1 clone. The cells were resuspended in 3 ml of fresh YPLA medium to which 30 μM of the labeled test substrate was added. Test substrates included:
The cell and test substrate suspension was incubated overnight at 30° C. with mixing (250 rpm). The incubation mixture was then treated for 15 minutes in a sonication bath and extracted twice with 3 ml of hexane:ethyl acetate (4:1 v/v). The organic extract was then dried under N2, the residue dissolved in 100 μl of acetonitrile, and an aliquot was separated by reversed-phase radio-HPLC (250 mm×4.6 mm column of Alltech (Deerfield, Ill.) Econosil C18 (5 μm); flow rate of 1 ml/min; with radio-detection of the effluent (Flow-One-Beta Series A-1000, Radiomatic Corp., Meriden, Conn.)). The following gradient was employed: 0-5 minutes at 100% Solvent A (97.99% H2O with 2% CH3CN and 0.01% H3PO4 (v/v)), 5-15 minutes at 0-50% Solvent B (99.99% CH3CN with 0.01% H3PO4 (v/v)), 15-55 minutes at 50-100% Solvent B, 55-65 minutes at 100% Solvent B, 65-70 minutes at 0-100% Solvent A, 70-75 minutes at 100% Solvent A. The HPLC eluant was collected in 1 minute fractions and the appropriate fractions containing the radiolabeled product were combined, dried under a stream of N2, and dissolved in the minimum volume of benzene for GC-MS analysis.
GC-MS analyses were performed on a Hewlett-Packard 6890 GC-MSD system using a ZB-5 capillary column (Phenomenex (Torrance, Calif.); 30 m length; 0.25 mm inner diameter; coated with a 0.25 μm film of phenyl (5%) polysiloxane). Cool on-column injection was used, with He flow rate of 0.7 ml/min and a temperature program from 40° C. to 320° C. at 20° C./min. Spectra were recorded at 70 eV.

[5] = test system: microsomal taxa-4(5),11(12)-diene isomerase activity; test: Assay for microsomal taxadiene isomerase activity and pH-dependent isomerization; type: biochemical; conditions: Taxus or Spodoptera microsomes, no NADPH or no O2, or CO, miconazole, clotrimazole, boiled controls
Protocol: The assay for microsomal taxa-4(5),11(12)-diene isomerase activity (and the reverse isomerization) was carried out under standard cytochrome P450 oxygenase conditions but in the absence of NADPH or O2, or in the presence of inhibitory concentrations of CO, miconazole or clotrimazole (under conditions described previously for which the rate of 5α-hydroxylation is negligible (Hefner et al., Chem. Biol., 3:479489, 1996)). A number of additional, potential cofactors were also tested, including FAD, FADH2, FMN, FMNH2, NAD+, NADH and NADP+ (all at 2.5 mM), as well as MgCl2 (at 5.0 mM). The possibility of pH-dependent isomerization was tested by incubating each isomer (100 μM) in phosphate buffer (pH 4 to 10) for 12 hours at 31° C., with separation of isomers as described previously (Williams et al., Arch. Biochem. Biophys., 379:137-146, 2000).

taxoid 5α-hydroxylase = taxoid 5α-hydroxylase (Taxus cuspidata, UniProt Q6WG30); test: Kinetic evaluation of taxadiene isomers, average of recombinant and T. media microsomes (FIG. 4); type: biochemical; conditions: average of recombinant (Sf9) and T. media microsomes; substrate 1 to 500 μM
Sequence of taxoid 5α-hydroxylase (Q6WG30 whole entry): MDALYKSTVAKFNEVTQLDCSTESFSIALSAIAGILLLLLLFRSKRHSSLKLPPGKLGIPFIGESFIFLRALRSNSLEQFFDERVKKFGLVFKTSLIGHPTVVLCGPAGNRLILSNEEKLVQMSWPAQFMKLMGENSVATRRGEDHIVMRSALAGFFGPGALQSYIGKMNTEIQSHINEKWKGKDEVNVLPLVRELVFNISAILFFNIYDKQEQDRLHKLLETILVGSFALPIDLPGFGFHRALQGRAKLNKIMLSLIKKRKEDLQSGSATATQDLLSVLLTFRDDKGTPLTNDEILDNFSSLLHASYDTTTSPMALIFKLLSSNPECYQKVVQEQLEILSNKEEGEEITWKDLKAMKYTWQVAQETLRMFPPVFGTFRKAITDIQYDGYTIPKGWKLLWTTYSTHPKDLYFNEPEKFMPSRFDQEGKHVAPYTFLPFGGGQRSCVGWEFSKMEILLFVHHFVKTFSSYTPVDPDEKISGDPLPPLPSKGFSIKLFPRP
Protocol: Taxa-4(20),11(12)-diene (◯) and taxa-4(5),11(12)-diene (●) were evaluated with microsomes from S. formgiperda cells enriched with 50 pmol recombinant taxoid 5α-hydroxylase (A), and with microsomes from T. media suspension cells containing about 50 pmol of total native cytochrome P450 (B). Substrate Concentration range was varied from 1 to 500 μM in all cases.

[6] = test system: native microsomal 5α-hydroxylase; conditions: native microsome preparations from yew stem tissue, determined previously; cited from earlier work
taxoid 13α-hydroxylase = target: T3, taxoid 13α-hydroxylase (Taxus cuspidata, UniProt Q8W4T9); test: Feeding to yeast that functionally express taxoid 13α-hydroxylase; type: cell-based; conditions: product of clone S1 enzyme fed to 13α-hydroxylase yeast
T3 construct: expressed in transfected cells
T3 sequence (Q8W4T9 whole entry): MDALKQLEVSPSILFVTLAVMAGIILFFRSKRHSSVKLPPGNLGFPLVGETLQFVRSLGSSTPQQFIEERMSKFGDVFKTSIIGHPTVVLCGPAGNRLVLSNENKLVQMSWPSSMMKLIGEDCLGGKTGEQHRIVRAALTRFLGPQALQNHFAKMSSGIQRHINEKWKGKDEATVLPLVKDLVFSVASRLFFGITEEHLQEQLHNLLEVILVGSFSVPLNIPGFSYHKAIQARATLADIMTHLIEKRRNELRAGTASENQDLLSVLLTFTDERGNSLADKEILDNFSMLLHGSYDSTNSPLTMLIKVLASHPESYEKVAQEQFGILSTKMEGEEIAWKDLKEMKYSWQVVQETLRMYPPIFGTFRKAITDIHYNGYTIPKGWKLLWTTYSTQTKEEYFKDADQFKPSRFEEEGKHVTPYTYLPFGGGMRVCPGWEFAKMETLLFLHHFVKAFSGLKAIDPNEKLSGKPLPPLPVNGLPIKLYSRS
Description: The taxa-4(20),11(12)-dien-5α-ol radiolabeled product of the clone S1 enzyme was isolated by HPLC, and the purified material was fed to yeast that functionally express the previously characterized taxoid 13α-hydroxylase (Jennewein et al., Proc. Natl. Acad. Sci. USA, 98:13595-13600, 2001). As discussed above, 13α-hydroxylation of a paclitaxel intermediate is believed to follow 5α-hydroxylation in the paclitaxel biosynthetic pathway (Floss and Mocek, Taxol: Science and Applications, CRC Press, Boca Raton, 191-208, 1995; and Croteau et al., Curr. Top. Plant Physiol. 15:94-104, 1996). Thus, as expected, taxa-4(20),11(12)-dien-5α-ol was quantitatively converted to taxa-4(20),11(12)-dien-5α,13α-diol by the 13α-hydroxylase.

[7] = FIG. 3, microsomes with 200 pmol recombinant enzyme, read-out: binding constant (Ks)
[8] = over a 100-fold range of substrate concentrations, pH 7.5, read-out: substrate binding constant (Ks), variation
[9] = overnight at 30° C., radio-HPLC

| Compound | hydroxylation activity in the presence of the inhibitor (5α-hydroxylase) | Kd [1, 7] | Kd [1, 8] | Vrel [2] | Km [3] | Vrel [3] | share of minor product taxadien-diol [4, 9] | share of principal product taxa-4(20),11(12)-dien-5α-ol [4, 9] | isomerization to the other taxadiene positional isomer [5] | Vrel (average) (taxoid 5α-hydroxylase) | further results |
| --- | --- | --- | --- | --- | --- | --- | --- | --- | --- | --- | --- |
| Clc1ccccc1C(c1ccccc1)(c1ccccc1)n1ccnc1 [clotrimazole] | negligible |  |  |  |  |  |  |  |  |  |  |
| Clc1ccc(COC(Cn2ccnc2)c2ccc(Cl)cc2Cl)c(Cl)c1 (stereo not shown) [miconazole] | negligible |  |  |  |  |  |  |  |  |  |  |
| CC1=CCC[C@@]2(C)CCC3=C(C)CC[C@@H](C[C@H]12)C3(C)C [taxa-4(5),11(12)-diene] |  | 6.5 ± 1.5 µM | 5 to 8 µM | 100 | 48 µM | 100 | < 50% | > 92% | No isomerization | 100 | conversion to more polar products [4, 9]: almost quantitatively; isomerization to the other taxadiene positional isomer ([5]; listed as 3): not observed; Km [6]: ~6 µM |
| C=C1[C@H]2C[C@@H]3CCC(C)=C(CC[C@]2(C)CC[C@@H]1O)C3(C)C [taxa-4(20),11(12)-dien-5α-ol] |  |  |  |  |  |  |  |  |  |  | conversion to taxa-4(20),11(12)-dien-5α,13α-diol (taxoid 13α-hydroxylase): quantitatively |
| C=C1CCC[C@@]2(C)CCC3=C(C)CC[C@@H](C[C@H]12)C3(C)C [taxa-4(20),11(12)-diene] |  | 4 ± 1 µM | 3 to 5 µM | 120 | 27 µM | 150 | ~8% | ~90% | No isomerization | 135 | share of other minor metabolites in product mix ([4]; also formed in negative control): ~2% |
